According to patent publication US20160152942A1, “METHOD FOR ISOLATING HIGHLY FURFURAL RESISTANT STRAIN AND STRAIN ISOLATED BY THE METHOD” (priority 2014, published 2016):
Like-named read-outs stand apart in the source and are kept apart here.

Assays:
Assay type in all cases: cell-based
E. coli = assay: Inhibition of growth by furfural, IC50 (Test Example 2); conditions: Escherichia coli; against E. coli; read-out: half maximal inhibitory concentration (IC50) of furfural
Procedure: (§1) The term “IC50” refers to the concentration of the toxic substance required to inhibit the maximum growth of the microorganism by 50%.
(§2) The half maximal inhibitory concentration (IC50) values of furfural were calculated. As a result, the IC50 value against Enterobacter cloacae strain GGT036 [Accession No. KCTC 12672BP]

[1] = test system: Enterobacter cloacae strain GGT036 [Accession No. KCTC 12672BP]; assay: Resistance to furfural, growth by turbidity (Test Example 1); conditions: 30 mM furfural, LB with 1% glucose, 30 °C, 24 h
Procedure: (§3) The degrees of growth of Enterobacter cloacae strain GGT036 [Accession No. KCTC 12672BP], E. coli (Comparative Example 1), and Corynebacterium glutamicum (Comparative Example 2) in media containing 30 mM furfural were compared by turbidity measurements to identify the resistance of Enterobacter cloacae strain GGT036 to furfural.
(§4) The media used were LB media supplemented with 1% glucose. An observation was made to determine the dependence of the growth of the strains in the media containing 30 mM furfural (FIG. 2B) and the furfural-free media (FIG. 2A) on the presence or absence of furfural.
(§5) After 7 mL of each medium was added to a glass tube (24 mm), the colonies obtained in Example 1 were inoculated into the medium, followed by culture at 30° C. for 24 h.

[2] = test system: Corynebacterium glutamicum (Comparative Example 2); assay: as above; conditions: 30 mM furfural, LB with 1% glucose, 30 °C, 24 h
Procedure: as §3, §4, §5

[3] = test system: E. coli (Comparative Example 1); assay: as above; conditions: 30 mM furfural, LB with 1% glucose, 30 °C, 24 h
Procedure: as §3, §4, §5

[4] = test system: Enterobacter cloacae strain GGT036 [Accession No. KCTC 12672BP]; assay: Inhibition of growth by furfural (Test Example 2); conditions: for IC50: LB medium with 1% glucose, 30 °C
Procedure: as §1
LB media were supplemented with 1% glucose as a carbon source to prepare culture media. To the culture media was added furfural at different concentrations of 20 mM, 40 mM, and 60 mM. The growth rates of the strain in the furfural-containing media were compared with the growth rate of the strain in the furfural-free medium.
After 50 mL of each culture medium was added to an Erlenmeyer flask, Enterobacter cloacae strain GGT036 [Accession No. KCTC 12672BP] was inoculated at an initial OD600 of 1, followed by culture at 30 ° C.
as §2

[5] = test system: Corynebacterium glutamicum; assay: Inhibition of growth by furfural, IC50 (Test Example 2); conditions: against Corynebacterium glutamicum; read-out: half maximal inhibitory concentration (IC50) of furfural

Structure (SMILES): O=Cc1ccco1 [furfural]
- IC50 (E. coli): 24.9 mM
- growth of strain in furfural-containing medium [1]: cell growth was observed
- growth of strain in furfural-containing medium [2]: not grown
- growth of strain in furfural-containing medium [3]: not grown
- OD value of culture ([4]; 60 mM furfural, after 30 h of culturing, initial OD600 of 1): ≤ 2
- IC50 ([4]; Enterobacter cloacae, read-out: half maximal inhibitory concentration (IC50) of furfural, against Enterobacter cloacae strain GGT036): 45 to 55 mM
- growth rate of strain ([4]; furfural concentration increasing from 0 mM to 40 mM): slightly retarded
- IC50 ([4]; read-out: half maximal inhibitory concentration (IC50) of furfural, against Enterobacter cloacae strain GGT036): 47.7 mM
- IC50 [5]: 10 mM
